Test results from US12054498B2, “Heteroaromatic macrocyclic ether chemotherapeutic agents” (Nuvalent, Inc., priority 2020, dated 2024).

Assays:
[1] = molecular target: T1, TRKA-wt (Homo sapiens, UniProt P04629); assay: Biochemical kinase assay, TRKA-wt kinase domain; settings: apparent inhibitory constant, Morrison equation; ATP 2 mM in substrate solution; read-out: TRKA-wt Ki^app
T1 construct: or TRKA-wt (1 nM, BPS Bio, 40280) kinase domains in buffer; purchased BPS Bio 40280
Summary of the method: (§1)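 Apparent Ki values come from fitting initial reaction rates against inhibitor concentration to the Morrison equation. Rates were taken from the linear phase of fluorogenic substrate phosphorylation (AQT0101 for ALK and ROS1, AQT0104 for TRKA; 26 μM in substrate solution with 2 mM ATP), monitored at 485 nm over 120 min at 30° C.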

[2] = molecular target: T2, Ba/F3 cells CD74-ROS1 wild-type (wt) (Homo sapiens, UniProt P08922); assay: Ba/F3 cell proliferation assay, CD74-ROS1 wild-type; type: cell-based; settings: 72 hours, CellTiter-Glo
T2 construct: fusion of the C-terminus of ROS1 with the N-terminus of various partner proteins; host or cells: Ba/F3 (RIKEN), retroviral pMSCV-puro; the other entry of the earlier key: CD74 (P04233, HLA class II histocompatibility antigen gamma chain)
T2 sequence (P08922 1883-2347 limits assumed): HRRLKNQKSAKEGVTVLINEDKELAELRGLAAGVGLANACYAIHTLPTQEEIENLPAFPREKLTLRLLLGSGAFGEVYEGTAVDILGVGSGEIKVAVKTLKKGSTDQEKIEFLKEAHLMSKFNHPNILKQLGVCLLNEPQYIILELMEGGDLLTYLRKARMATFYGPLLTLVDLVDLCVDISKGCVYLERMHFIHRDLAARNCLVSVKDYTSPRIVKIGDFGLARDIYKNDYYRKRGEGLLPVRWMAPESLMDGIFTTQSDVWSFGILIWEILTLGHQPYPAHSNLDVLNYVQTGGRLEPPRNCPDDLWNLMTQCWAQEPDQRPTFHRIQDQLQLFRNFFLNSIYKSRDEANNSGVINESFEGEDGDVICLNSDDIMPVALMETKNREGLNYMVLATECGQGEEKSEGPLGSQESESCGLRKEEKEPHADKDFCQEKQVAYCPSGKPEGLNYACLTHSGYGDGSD
Summary of the method: (§2)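 Cells were seeded 1 day, then exposed to a 3-fold compound dilution series for 72 hours. Viability was read by CellTiter-Glo luminescence; IC50 came from four-parameter logistic fitting of percent inhibition.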

[3] = molecular target: T3, Ba/F3 cells EML4-ALK L1196M/G1202R (variant 1) (Homo sapiens, UniProt Q9UM73, G1202R/L1196M); assay: Ba/F3 cell proliferation assay, EML4-ALK L1196M/G1202R (variant 1); type: cell-based; settings: 72 hours, CellTiter-Glo
T3 construct: echinoderm microtubule-associated protein-like 4 (EML4) gene and the ALK tyrosine kinase domain; host or cells: Ba/F3 (RIKEN), retroviral pMSCV-puro; the other entry of the earlier key: EML4 (Q9HC35, Echinoderm microtubule-associated protein-like 4)
T3 sequence (Q9UM73 with tags, fused parts or gaps L1196M/G1202R): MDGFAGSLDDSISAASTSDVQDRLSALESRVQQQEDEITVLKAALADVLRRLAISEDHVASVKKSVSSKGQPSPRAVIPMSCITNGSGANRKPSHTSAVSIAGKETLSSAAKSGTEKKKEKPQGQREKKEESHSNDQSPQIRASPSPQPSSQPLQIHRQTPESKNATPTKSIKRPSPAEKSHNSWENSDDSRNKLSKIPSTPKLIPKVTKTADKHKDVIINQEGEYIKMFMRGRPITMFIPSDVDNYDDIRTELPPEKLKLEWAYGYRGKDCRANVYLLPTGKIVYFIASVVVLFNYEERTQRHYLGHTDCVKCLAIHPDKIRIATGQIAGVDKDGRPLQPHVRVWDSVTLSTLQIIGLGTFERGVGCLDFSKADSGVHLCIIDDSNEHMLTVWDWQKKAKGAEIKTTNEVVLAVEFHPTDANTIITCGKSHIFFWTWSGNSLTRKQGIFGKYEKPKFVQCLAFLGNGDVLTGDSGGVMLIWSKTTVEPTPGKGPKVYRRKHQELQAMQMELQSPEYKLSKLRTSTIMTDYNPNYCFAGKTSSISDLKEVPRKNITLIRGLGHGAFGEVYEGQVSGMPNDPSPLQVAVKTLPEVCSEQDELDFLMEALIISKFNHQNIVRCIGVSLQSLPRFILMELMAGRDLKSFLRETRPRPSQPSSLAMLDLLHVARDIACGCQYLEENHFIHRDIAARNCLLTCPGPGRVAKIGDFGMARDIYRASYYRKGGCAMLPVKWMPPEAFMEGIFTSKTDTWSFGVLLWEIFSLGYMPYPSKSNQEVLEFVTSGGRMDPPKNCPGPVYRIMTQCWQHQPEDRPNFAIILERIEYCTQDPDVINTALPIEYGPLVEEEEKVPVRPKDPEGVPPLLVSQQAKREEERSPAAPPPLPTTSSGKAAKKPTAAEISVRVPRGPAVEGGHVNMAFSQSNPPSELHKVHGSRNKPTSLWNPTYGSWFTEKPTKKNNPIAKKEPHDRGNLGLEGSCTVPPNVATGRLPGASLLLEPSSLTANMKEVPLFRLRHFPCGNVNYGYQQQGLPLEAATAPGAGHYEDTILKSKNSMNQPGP
Summary of the method: (§3)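 Proliferation of fusion-driven Ba/F3 monoclones (grown without IL-3, puromycin 0.8 μg/mL) is followed over 72 hours of treatment with a 3-fold compound dilution series. ATP content is read by CellTiter-Glo luminescence, and IC50 is derived by four-parameter logistic fitting of percent inhibition.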

[4] = tested on: TPM3-NTRK1-wt IC50 / primary target IC50 (e.g. CD74-ROS1-wt); assay: TRKA selectivity in Ba/F3 cells (TRKA potency divided by primary target potency); type: cell-based; settings: for TPM3-NTRK1-wt/CD74-ROS1-G2032R selectivity ratio: TRKA potency / CD74-ROS1-G2032R potency; for TPM3-NTRK1-wt/CD74-ROS1-wt selectivity ratio: TRKA potency / CD74-ROS1-wt potency; for TPM3-NTRK1-wt/EML4-ALK-L1196M-G1202R selectivity ratio: TRKA potency / EML4-ALK-L1196M-G1202R potency; for TPM3-NTRK1-wt/EML4-ALK-wt selectivity ratio: TRKA potency / EML4-ALK-wt potency
Protocol: TRKA selectivity was calculated by dividing a compound's TRKA potency by its primary target potency (e.g. TPM3-NTRK1-wt IC50/CD74-ROS1-wt IC50). Compound selectivity can be interpreted by binning ratio values: bin A for very high selectivity, ratio >30-fold; bin B for high selectivity, ratio >10-fold; bin C for moderate selectivity, ratio ≥1; and bin D for low selectivity, ratio <1. […] (nd=not determined).

[5] = molecular target: T4, ROS1-G2032R (Homo sapiens, UniProt P08922, G2032R); assay: Biochemical kinase assay, ROS1-G2032R kinase domain; settings: apparent inhibitory constant, Morrison equation; ATP 2 mM in substrate solution; read-out: ROS1-G2032R Ki^app
T4 construct: purchased SignalChem R14-12BG
T4 sequence (P08922 1945-2222 G2032R limits assumed): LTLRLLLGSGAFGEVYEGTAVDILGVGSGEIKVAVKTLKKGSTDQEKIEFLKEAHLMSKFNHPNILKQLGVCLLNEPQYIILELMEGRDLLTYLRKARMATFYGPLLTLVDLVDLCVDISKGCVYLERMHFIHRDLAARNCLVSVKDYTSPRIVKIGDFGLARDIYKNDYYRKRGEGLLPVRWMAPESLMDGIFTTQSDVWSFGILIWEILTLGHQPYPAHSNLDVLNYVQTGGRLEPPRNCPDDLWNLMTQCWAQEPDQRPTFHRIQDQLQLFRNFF
Summary of the method: (§4)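 Compounds, as 100-fold DMSO stocks, were dispensed first, then substrate mix was added (ATP 2 mM, AQT0101 26 μM, in 50 mM HEPES pH 7.5/10 mM MgCl2). Reactions ran at 30 °C with fluorescence logged every 2 min over 120 min. Apparent inhibition constants came from fitting rates to Morrison's tight-binding equation.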

[6] = molecular target: T5, ALK L1196M/G1202R (Homo sapiens, UniProt Q9UM73, G1202R/L1196M); assay: Biochemical kinase assay, ALK L1196M/G1202R kinase domain; settings: apparent inhibitory constant, Morrison equation; ATP 2 mM in substrate solution; read-out: ALK-L1196M-G1202R Ki^app
T5 construct: purchased SignalChem A19-12NG
T5 sequence (Q9UM73 1116-1392 L1196M/G1202R limits assumed): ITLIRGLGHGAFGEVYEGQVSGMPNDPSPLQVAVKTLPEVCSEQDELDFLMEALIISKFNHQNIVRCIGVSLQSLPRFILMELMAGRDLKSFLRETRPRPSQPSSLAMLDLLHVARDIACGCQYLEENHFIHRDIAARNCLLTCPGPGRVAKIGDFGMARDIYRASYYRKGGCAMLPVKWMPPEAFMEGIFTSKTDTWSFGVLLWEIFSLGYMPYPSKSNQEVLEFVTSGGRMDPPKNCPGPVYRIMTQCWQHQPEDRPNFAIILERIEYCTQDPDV
Summary of the method: as §1

[7] = molecular target: T6, ALK-wt (Homo sapiens, UniProt Q9UM73); assay: Biochemical kinase assay, ALK-wt kinase domain; settings: apparent inhibitory constant, Morrison equation; ATP 2 mM in substrate solution; read-out: ALK-wt Ki^app
T6 construct: purchased Carna 08-518
T6 sequence (Q9UM73 1116-1392 limits assumed): as the sequence (Q9UM73 1116-1392 L1196M/G1202R limits assumed) above, with M81L, R87G counted along it
Summary of the method: as §1

[8] = molecular target: T7, Ba/F3 cells TPM3-TRKA (Homo sapiens, UniProt P04629); assay: Ba/F3 cell proliferation assay, TPM3-TRKA; type: cell-based; settings: 72 hours, CellTiter-Glo, read-out: TPM3-NTRK1-wt IC50
T7 construct: host or cells: Ba/F3 (RIKEN), retroviral pMSCV-puro; the other entry of the earlier key: TPM3 (P06753, Tropomyosin alpha-3 chain)
T7 sequence (P04629 510-796 limits assumed): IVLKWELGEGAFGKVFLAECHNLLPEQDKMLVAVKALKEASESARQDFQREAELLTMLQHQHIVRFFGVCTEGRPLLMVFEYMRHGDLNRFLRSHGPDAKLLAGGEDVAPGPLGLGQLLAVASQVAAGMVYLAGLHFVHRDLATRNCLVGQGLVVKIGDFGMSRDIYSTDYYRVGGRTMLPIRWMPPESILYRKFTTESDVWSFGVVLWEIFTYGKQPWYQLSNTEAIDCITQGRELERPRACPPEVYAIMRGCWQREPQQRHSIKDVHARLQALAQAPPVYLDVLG
Summary of the method: as §3

[9] = molecular target: T8, Ba/F3 cells CD74-ROS1 G2032R (Homo sapiens, UniProt P08922, G2032R); assay: Ba/F3 cell proliferation assay, CD74-ROS1 G2032R; type: cell-based; settings: 72 hours, CellTiter-Glo
T8 construct: fusion of the C-terminus of ROS1 with the N-terminus of various partner proteins; host or cells: Ba/F3 (RIKEN), retroviral pMSCV-puro; the other entry of the earlier key: CD74 (P04233, HLA class II histocompatibility antigen gamma chain)
T8 sequence (P08922 1883-2347 G2032R limits assumed): as the sequence (P08922 1883-2347 limits assumed) above, with G150R counted along it
Summary of the method: as §2

[10] = molecular target: T9, ROS1-wt (Homo sapiens, UniProt P08922); assay: Biochemical kinase assay, ROS1-wt kinase domain; settings: apparent inhibitory constant, Morrison equation; ATP 2 mM in substrate solution; read-out: ROS1-wt Ki^app
T9 construct: purchased Carna 08-163
T9 sequence (P08922 1945-2222 limits assumed): as the sequence (P08922 1945-2222 G2032R limits assumed) above, with R88G counted along it
Summary of the method: as §4

[11] = molecular target: T10, Ba/F3 cells EML4-ALK wt (variant 1) (Homo sapiens, UniProt Q9UM73); assay: Ba/F3 cell proliferation assay, EML4-ALK wt (variant 1); type: cell-based; settings: 72 hours, CellTiter-Glo
T10 construct: echinoderm microtubule-associated protein-like 4 (EML4) gene and the ALK tyrosine kinase domain; host or cells: Ba/F3 (RIKEN), retroviral pMSCV-puro; the other entry of the earlier key: EML4 (Q9HC35, Echinoderm microtubule-associated protein-like 4)
T10 sequence (Q9UM73 with tags, fused parts or gaps): as the sequence (Q9UM73 with tags, fused parts or gaps L1196M/G1202R) above, with M635L, R641G counted along it
Summary of the method: as §3

T1 sequence (P04629 510-781 limits assumed): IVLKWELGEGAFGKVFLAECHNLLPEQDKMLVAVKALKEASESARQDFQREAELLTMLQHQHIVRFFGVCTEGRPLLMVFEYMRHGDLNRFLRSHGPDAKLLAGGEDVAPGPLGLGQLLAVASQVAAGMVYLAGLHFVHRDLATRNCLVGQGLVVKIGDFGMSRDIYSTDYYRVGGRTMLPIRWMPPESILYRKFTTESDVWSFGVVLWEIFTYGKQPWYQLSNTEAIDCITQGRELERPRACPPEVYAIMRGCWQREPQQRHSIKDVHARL

Row | Compound | Ki [1] | IC50 [2] | IC50 [3] | Ki [5] | Ki [6] | Ki [7] | IC50 [8] | IC50 [9] | Ki [10] | IC50 [11] | TPM3-NTRK1-wt/CD74-ROS1-G2032R selectivity ratio [4] | TPM3-NTRK1-wt/CD74-ROS1-wt selectivity ratio [4] | TPM3-NTRK1-wt/EML4-ALK-L1196M-G1202R selectivity ratio [4] | TPM3-NTRK1-wt/EML4-ALK-wt selectivity ratio [4]
1 | C[C@H]1Oc2cc(cnc2N)-c2c(C#N)noc2Cc2nn(C)nc2-c2ccc(F)cc21 [Example 25, (19R)-22-amino-16-fluoro-10,19-dimethyl-5,20-dioxa-4,9,10,11,23-pentaazapentacyclo[19.3,1.0^2,^6.0^8,^12.0^13,^18]pentacosa-1(24),2(6),3,8,11,13,15,17,21(25),22-decaene-3-carbonitrile] | > 500 nM | 0.1 to 50 nM | > 500 nM | 50 to 500 nM | 50 to 500 nM | < 50 nM | > 500 nM | 0.1 to 50 nM | < 50 nM | 50 to 500 nM | A (bin A for very high selectivity, ratio >30-fold) | A (bin A for very high selectivity, ratio >30-fold) | C (bin C for moderate selectivity, ratio ≥1) | A (bin A for very high selectivity, ratio >30-fold)
2 | C[C@H]1Oc2cc(cnc2N)-c2c(C3CCC3)noc2Cc2nn(C)nc2-c2ccc(F)cc21 [Example 26, (19R)-3-cyclobutyl-16-fluoro-10,19-dimethyl-5,20-dioxa-4,9,10,11,23-pentaazapentacyclo[19.3.1.0^2,^6.0^8,^12.0^13,^18]pentacosa-1(24),2(6),3,8,11,13,15,1 7,21(25),22-decaen-22-amine] | > 500 nM | 0.1 to 50 nM | 0.1 to 50 nM | < 50 nM | < 50 nM | < 50 nM | 50 to 500 nM | 0.1 to 50 nM | < 50 nM | 0.1 to 50 nM | A (bin A for very high selectivity, ratio >30-fold) | A (bin A for very high selectivity, ratio >30-fold) | C (bin C for moderate selectivity, ratio ≥1) | A (bin A for very high selectivity, ratio >30-fold)
3 | CCn1nc(Cl)c2c1-c1cnc(N)c(c1)O[C@H](C)c1cc(F)ccc1-c1nn(C)nc1C2 [Example 28, (19R)-5-chloro-3ethyl-16-fluoro-10,19-dimethyl-20-oxa-3,4,9,10,11,23-hexaazapentacyclo[19.3.1.0^2,^6.0^8,^12.0^13,^18]pentacosa-1(24),2(6),4,8,11,13,15,17,21(25),22-decaen-22-amine] | > 500 nM | 0.1 to 50 nM | 50 to 500 nM | < 50 nM | < 50 nM | < 50 nM | 50 to 500 nM | 0.1 to 50 nM | < 50 nM | 0.1 to 50 nM | A (bin A for very high selectivity, ratio >30-fold) | A (bin A for very high selectivity, ratio >30-fold) | C (bin C for moderate selectivity, ratio ≥1) | B (bin B for high selectivity, ratio >10-fold)

Second part, led by results:

Row | Ki [1] | IC50 [2] | IC50 [3] | Ki [5] | Ki [6] | Ki [7] | IC50 [8] | IC50 [9] | Ki [10] | IC50 [11] | Compound | TPM3-NTRK1-wt/CD74-ROS1-G2032R selectivity ratio [4] | TPM3-NTRK1-wt/CD74-ROS1-wt selectivity ratio [4] | TPM3-NTRK1-wt/EML4-ALK-L1196M-G1202R selectivity ratio [4] | TPM3-NTRK1-wt/EML4-ALK-wt selectivity ratio [4]
4 | 50 to 500 nM | 0.1 to 50 nM | 50 to 500 nM | < 50 nM | < 50 nM | < 50 nM | 50 to 500 nM | 0.1 to 50 nM | < 50 nM | 0.1 to 50 nM | CCc1noc2c1-c1cnc(N)c(c1)O[C@H](C)c1cc(F)ccc1-c1cn(C)nc1C2 [Example 23, (19R)-3ethyl-16-fluoro-10,19-dimethyl-5,20-dioxa-4,9,10,23-tetraazapentacyclo[19.3.1.0^2,^6.0^8,^12.0^13,^18]pentacosa-1(24),2(6),3,8,11,13,15,17,21(25),22-decaen-22-amine] | A (bin A for very high selectivity, ratio >30-fold) | A (bin A for very high selectivity, ratio >30-fold) | C (bin C for moderate selectivity, ratio ≥1) | B (bin B for high selectivity, ratio >10-fold)
5 | > 500 nM | 0.1 to 50 nM | 50 to 500 nM | < 50 nM | < 50 nM | < 50 nM | > 500 nM | 0.1 to 50 nM | < 50 nM | 0.1 to 50 nM | C[C@H]1Oc2cc(cnc2N)-c2c(cnn2CC(F)F)Cc2nn(C)nc2-c2ccc(F)cc21 [Example 24, (19R)-3-(2,2-difluoroethyl)-16-fluoro-10,19-dimethyl-20oxa3,4,9,10,11,23-hexaazapentacyclo[19.3.1.0^2,^6.0^8,^12.0^13,^18]pentacosa-1(24),2(6),4,8,11,13,15,17,21 (25),22-decaen-22-amine] | A (bin A for very high selectivity, ratio >30-fold) | A (bin A for very high selectivity, ratio >30-fold) | B (bin B for high selectivity, ratio >10-fold) | A (bin A for very high selectivity, ratio >30-fold)
6 | 50 to 500 nM | 0.1 to 50 nM | 0.1 to 50 nM | < 50 nM | < 50 nM | < 50 nM | 50 to 500 nM | 0.1 to 50 nM | < 50 nM | 0.1 to 50 nM | CCn1nc(C)c2c1-c1cnc(N)c(c1)O[C@H](C)c1cc(F)ccc1-c1nn(C)nc1C2 [Example 29, (19R)-3-ethyl-16-fluoro-5,10,19-trimethyl-20-oxa-3,4,9,10,11,23-hexaazapentacyclo[19.3.1.0^2,^6.0^8,^12.0^13,^18]pentacosa-1(24),2(6),4,8,11,13,15,17,21(25),22-decaen-22-amine] | A (bin A for very high selectivity, ratio >30-fold) | A (bin A for very high selectivity, ratio >30-fold) | C (bin C for moderate selectivity, ratio ≥1) | A (bin A for very high selectivity, ratio >30-fold)
